Legend:
Assay type in all cases: biochemical
[1] = molecular target: ProfilerPro Kinase Selectivity Assay Kit kinases (Homo sapiens, UniProt O14757); details: CHK1; 1 μM compound concentration
Procedure: (§1) Compounds were profiled using a LabChip® EZ Reader II platform and a ProfilerPro Kinase Selectivity Assay Kit (Caliper Lifesciences Inc., Hopkinton, Mass.). Compounds were tested at a concentration of 1 M in duplicate, with mean data reported as percent of control (POC).

[2] = molecular target: ProfilerPro Kinase Selectivity Assay Kit kinases (Homo sapiens, UniProt O14965); details: AURORA A; 1 μM compound concentration
Procedure: as §1

[3] = molecular target: ProfilerPro Kinase Selectivity Assay Kit kinases (Homo sapiens, UniProt O75582); details: MSK1; 1 μM compound concentration
Procedure: as §1

[4] = molecular target: ProfilerPro Kinase Selectivity Assay Kit kinases (Homo sapiens, UniProt O95819); details: HGK; 1 μM compound concentration
Procedure: as §1

[5] = molecular target: ProfilerPro Kinase Selectivity Assay Kit kinases (Homo sapiens, UniProt P00519); details: ABL; 1 μM compound concentration
Procedure: as §1

[6] = molecular target: ProfilerPro Kinase Selectivity Assay Kit kinases (Homo sapiens, UniProt P04049); details: cRAF; 1 μM compound concentration
Procedure: as §1

[7] = molecular target: ProfilerPro Kinase Selectivity Assay Kit kinases (Homo sapiens, UniProt P06213); details: INSR; 1 μM compound concentration
Procedure: as §1

[8] = molecular target: ProfilerPro Kinase Selectivity Assay Kit kinases (Homo sapiens, UniProt P06239); details: LCK; 1 μM compound concentration
Procedure: as §1

[9] = molecular target: ProfilerPro Kinase Selectivity Assay Kit kinases (Homo sapiens, UniProt P07948); details: LYN; 1 μM compound concentration
Procedure: as §1

[10] = molecular target: ProfilerPro Kinase Selectivity Assay Kit kinases (Homo sapiens, UniProt P08069); details: IGF1R; 1 μM compound concentration
Procedure: as §1

[11] = molecular target: ProfilerPro Kinase Selectivity Assay Kit kinases (Homo sapiens, UniProt P08581); details: cMET; 1 μM compound concentration
Procedure: as §1

[12] = molecular target: ProfilerPro Kinase Selectivity Assay Kit kinases (Homo sapiens, UniProt P11362); details: FGFR1; 1 μM compound concentration
Procedure: as §1

[13] = molecular target: ProfilerPro Kinase Selectivity Assay Kit kinases (Homo sapiens, UniProt P12931); details: SRC; 1 μM compound concentration
Procedure: as §1

[14] = molecular target: ProfilerPro Kinase Selectivity Assay Kit kinases (Homo sapiens, UniProt P17612); details: PKA alpha; 1 μM compound concentration
Procedure: as §1

[15] = molecular target: ProfilerPro Kinase Selectivity Assay Kit kinases (Homo sapiens, UniProt P23443); details: p70S6K; 1 μM compound concentration
Procedure: as §1

[16] = molecular target: ProfilerPro Kinase Selectivity Assay Kit kinases (Homo sapiens, UniProt P24941); details: CDK2; 1 μM compound concentration
Procedure: as §1

[17] = molecular target: ProfilerPro Kinase Selectivity Assay Kit kinases (Homo sapiens, UniProt P27361); details: ERK1; 1 μM compound concentration
Procedure: as §1

[18] = molecular target: ProfilerPro Kinase Selectivity Assay Kit kinases (Homo sapiens, UniProt P28482); details: ERK2; 1 μM compound concentration
Procedure: as §1

[19] = molecular target: ProfilerPro Kinase Selectivity Assay Kit kinases (Homo sapiens, UniProt P31749); details: AKT1; 1 μM compound concentration
Procedure: as §1

[20] = molecular target: ProfilerPro Kinase Selectivity Assay Kit kinases (Homo sapiens, UniProt P36888); details: FLT3; 1 μM compound concentration
Procedure: as §1

[21] = molecular target: ProfilerPro Kinase Selectivity Assay Kit kinases (Homo sapiens, UniProt P48730); details: CK1 delta; 1 μM compound concentration
Procedure: as §1

[22] = molecular target: ProfilerPro Kinase Selectivity Assay Kit kinases (Homo sapiens, UniProt P49841); details: GSK3 beta; 1 μM compound concentration
Procedure: as §1

[23] = molecular target: ProfilerPro Kinase Selectivity Assay Kit kinases (Homo sapiens, UniProt Q06187); details: BTK; 1 μM compound concentration
Procedure: as §1

[24] = molecular target: ProfilerPro Kinase Selectivity Assay Kit kinases (Homo sapiens, UniProt Q13188); details: MST2; 1 μM compound concentration
Procedure: as §1

[25] = molecular target: ProfilerPro Kinase Selectivity Assay Kit kinases (Homo sapiens, UniProt Q13627); details: DYRK1a; 1 μM compound concentration
Procedure: as §1

[26] = molecular target: ProfilerPro Kinase Selectivity Assay Kit kinases (Homo sapiens, UniProt Q13976); details: PKGa2; 1 μM compound concentration
Procedure: as §1

[27] = molecular target: ProfilerPro Kinase Selectivity Assay Kit kinases (Homo sapiens, UniProt Q15418); details: RSK1; 1 μM compound concentration
Procedure: as §1

[28] = molecular target: ProfilerPro Kinase Selectivity Assay Kit kinases (Homo sapiens, UniProt Q16539); details: p38 alpha; 1 μM compound concentration
Procedure: as §1

[29] = molecular target: ProfilerPro Kinase Selectivity Assay Kit kinases (Homo sapiens, UniProt Q16566); details: CAMK4; 1 μM compound concentration
Procedure: as §1

[30] = molecular target: ProfilerPro Kinase Selectivity Assay Kit kinases (Homo sapiens, UniProt Q8IW41); details: PRAK; 1 μM compound concentration
Procedure: as §1

[31] = molecular target: ProfilerPro Kinase Selectivity Assay Kit kinases (Homo sapiens, UniProt Q9P0L2); details: MARK1; 1 μM compound concentration
Procedure: as §1

ProfilerPro Kinase Selectivity Assay Kit kinases (Homo sapiens, UniProt P27361), sequence (P27361 2-379 limits assumed): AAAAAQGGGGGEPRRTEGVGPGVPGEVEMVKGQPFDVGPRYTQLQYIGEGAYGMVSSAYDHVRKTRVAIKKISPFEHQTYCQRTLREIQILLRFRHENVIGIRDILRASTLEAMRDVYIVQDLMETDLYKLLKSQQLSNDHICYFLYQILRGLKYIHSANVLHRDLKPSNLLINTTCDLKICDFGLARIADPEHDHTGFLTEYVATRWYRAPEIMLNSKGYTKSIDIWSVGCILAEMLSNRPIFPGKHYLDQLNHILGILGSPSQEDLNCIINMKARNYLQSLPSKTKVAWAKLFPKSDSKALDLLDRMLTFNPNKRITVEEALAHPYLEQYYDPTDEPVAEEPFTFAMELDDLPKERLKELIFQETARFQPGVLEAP
ProfilerPro Kinase Selectivity Assay Kit kinases (Homo sapiens, UniProt P07948), sequence (P07948 2-512 limits assumed): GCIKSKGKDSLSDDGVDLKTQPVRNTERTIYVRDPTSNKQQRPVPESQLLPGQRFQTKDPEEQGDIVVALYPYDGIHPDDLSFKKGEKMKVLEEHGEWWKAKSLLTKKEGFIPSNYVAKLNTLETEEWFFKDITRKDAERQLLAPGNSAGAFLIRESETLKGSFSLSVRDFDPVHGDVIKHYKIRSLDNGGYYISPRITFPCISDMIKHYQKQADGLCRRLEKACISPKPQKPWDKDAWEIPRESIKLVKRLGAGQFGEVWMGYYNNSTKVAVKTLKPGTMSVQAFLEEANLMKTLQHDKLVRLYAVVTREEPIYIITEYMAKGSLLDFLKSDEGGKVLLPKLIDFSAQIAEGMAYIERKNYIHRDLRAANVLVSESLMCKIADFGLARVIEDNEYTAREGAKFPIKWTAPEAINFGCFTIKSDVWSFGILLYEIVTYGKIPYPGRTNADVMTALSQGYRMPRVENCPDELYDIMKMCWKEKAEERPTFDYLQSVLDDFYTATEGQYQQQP
ProfilerPro Kinase Selectivity Assay Kit kinases (Homo sapiens, UniProt Q06187), sequence (Q06187 2-659 limits assumed): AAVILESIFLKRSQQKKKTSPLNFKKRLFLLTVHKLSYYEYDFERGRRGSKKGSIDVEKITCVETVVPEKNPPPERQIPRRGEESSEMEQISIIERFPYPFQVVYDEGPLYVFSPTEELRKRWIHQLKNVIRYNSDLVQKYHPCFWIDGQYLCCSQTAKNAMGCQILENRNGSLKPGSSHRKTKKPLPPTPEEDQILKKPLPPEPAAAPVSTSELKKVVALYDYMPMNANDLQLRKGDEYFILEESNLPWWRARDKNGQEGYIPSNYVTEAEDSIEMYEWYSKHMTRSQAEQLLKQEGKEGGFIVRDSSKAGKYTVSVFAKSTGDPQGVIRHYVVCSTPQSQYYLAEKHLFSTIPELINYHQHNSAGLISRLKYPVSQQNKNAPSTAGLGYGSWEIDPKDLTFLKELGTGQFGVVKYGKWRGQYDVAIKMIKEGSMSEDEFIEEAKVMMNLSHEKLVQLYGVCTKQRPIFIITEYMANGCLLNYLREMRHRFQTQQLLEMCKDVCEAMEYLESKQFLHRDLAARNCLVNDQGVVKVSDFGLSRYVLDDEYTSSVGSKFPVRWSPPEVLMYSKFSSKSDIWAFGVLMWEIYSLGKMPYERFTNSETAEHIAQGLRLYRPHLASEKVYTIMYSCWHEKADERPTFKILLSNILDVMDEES
ProfilerPro Kinase Selectivity Assay Kit kinases (Homo sapiens, UniProt Q16539), sequence (Q16539 2-360 limits assumed): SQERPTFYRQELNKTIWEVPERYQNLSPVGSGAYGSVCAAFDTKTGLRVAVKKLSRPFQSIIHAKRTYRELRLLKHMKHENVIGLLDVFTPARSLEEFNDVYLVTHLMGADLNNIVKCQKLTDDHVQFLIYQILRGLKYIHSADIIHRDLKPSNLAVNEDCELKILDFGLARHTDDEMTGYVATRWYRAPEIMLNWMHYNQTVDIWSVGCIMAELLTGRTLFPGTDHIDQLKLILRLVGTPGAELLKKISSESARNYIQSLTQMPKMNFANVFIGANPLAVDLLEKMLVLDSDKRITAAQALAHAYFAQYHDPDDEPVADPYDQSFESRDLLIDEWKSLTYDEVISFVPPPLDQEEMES
ProfilerPro Kinase Selectivity Assay Kit kinases (Homo sapiens, UniProt P11362), sequence (P11362 22-822 limits assumed): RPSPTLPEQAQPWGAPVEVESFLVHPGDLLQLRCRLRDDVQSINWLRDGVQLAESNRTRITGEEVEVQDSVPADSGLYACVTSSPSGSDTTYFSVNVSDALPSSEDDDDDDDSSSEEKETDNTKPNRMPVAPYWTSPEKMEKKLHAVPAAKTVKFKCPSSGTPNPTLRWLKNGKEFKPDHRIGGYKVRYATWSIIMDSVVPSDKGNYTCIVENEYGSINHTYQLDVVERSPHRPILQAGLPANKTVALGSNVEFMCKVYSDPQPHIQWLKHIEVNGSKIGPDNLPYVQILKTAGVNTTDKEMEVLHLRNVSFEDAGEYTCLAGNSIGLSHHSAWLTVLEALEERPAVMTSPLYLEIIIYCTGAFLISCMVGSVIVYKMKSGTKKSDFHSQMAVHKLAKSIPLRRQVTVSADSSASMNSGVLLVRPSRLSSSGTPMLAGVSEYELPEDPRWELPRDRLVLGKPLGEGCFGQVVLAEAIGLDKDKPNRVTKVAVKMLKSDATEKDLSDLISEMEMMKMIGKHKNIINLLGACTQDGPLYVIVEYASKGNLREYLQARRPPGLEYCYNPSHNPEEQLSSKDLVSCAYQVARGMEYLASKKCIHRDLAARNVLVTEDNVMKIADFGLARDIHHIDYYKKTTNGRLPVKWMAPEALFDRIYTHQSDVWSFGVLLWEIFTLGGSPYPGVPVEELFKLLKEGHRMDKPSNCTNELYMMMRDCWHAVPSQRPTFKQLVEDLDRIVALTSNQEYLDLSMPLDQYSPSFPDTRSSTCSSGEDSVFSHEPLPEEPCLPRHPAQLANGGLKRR
ProfilerPro Kinase Selectivity Assay Kit kinases (Homo sapiens, UniProt P08581), sequence (P08581 25-1390 limits assumed): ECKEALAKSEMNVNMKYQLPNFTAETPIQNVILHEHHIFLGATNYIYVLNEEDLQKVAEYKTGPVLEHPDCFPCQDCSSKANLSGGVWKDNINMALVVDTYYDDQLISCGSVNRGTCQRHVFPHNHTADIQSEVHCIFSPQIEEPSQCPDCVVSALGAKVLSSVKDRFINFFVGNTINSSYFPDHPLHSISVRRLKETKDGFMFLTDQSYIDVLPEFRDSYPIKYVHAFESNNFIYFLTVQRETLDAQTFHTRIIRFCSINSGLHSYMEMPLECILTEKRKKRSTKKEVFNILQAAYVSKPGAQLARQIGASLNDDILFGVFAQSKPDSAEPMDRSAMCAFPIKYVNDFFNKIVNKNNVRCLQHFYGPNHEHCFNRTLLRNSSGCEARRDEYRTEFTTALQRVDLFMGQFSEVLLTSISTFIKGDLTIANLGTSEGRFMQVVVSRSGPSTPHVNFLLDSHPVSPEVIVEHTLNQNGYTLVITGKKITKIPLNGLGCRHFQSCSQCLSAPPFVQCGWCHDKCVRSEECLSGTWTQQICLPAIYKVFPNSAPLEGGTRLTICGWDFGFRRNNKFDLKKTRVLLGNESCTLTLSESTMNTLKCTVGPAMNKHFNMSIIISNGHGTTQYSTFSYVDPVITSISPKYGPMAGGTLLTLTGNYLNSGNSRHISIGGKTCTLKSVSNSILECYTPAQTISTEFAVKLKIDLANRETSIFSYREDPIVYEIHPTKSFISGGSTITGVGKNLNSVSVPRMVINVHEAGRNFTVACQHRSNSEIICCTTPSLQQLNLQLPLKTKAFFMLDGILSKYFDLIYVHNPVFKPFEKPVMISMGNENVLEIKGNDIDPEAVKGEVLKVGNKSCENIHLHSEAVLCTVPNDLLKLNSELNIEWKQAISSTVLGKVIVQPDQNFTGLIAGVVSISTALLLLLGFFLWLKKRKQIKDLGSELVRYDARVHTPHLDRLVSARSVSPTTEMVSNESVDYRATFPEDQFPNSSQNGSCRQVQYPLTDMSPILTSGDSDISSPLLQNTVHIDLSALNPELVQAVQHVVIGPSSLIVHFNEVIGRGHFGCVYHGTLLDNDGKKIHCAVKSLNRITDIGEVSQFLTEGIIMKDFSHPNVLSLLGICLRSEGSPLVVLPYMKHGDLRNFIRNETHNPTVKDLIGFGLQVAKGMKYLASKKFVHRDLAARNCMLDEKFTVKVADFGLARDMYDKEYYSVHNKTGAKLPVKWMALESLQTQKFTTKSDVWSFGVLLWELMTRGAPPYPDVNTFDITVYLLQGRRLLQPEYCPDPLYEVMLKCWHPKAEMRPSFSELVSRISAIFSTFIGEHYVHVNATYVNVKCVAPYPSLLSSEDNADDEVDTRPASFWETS
ProfilerPro Kinase Selectivity Assay Kit kinases (Homo sapiens, UniProt P12931), sequence (P12931 2-536 limits assumed): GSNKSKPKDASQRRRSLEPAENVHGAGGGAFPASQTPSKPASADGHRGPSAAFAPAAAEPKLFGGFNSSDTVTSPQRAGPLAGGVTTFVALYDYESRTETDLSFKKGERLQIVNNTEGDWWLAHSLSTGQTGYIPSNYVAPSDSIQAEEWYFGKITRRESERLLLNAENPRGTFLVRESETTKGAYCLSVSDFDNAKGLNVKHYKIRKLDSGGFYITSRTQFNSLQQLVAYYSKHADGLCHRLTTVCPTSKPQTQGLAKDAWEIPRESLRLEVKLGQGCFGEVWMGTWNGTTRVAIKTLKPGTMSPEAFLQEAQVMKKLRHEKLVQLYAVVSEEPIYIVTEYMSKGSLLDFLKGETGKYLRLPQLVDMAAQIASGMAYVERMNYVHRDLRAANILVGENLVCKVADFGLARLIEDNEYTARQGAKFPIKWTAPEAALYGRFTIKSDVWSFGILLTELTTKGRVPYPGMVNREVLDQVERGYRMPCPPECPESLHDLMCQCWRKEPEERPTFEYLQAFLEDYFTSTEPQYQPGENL
ProfilerPro Kinase Selectivity Assay Kit kinases (Homo sapiens, UniProt P28482), sequence (P28482 2-360 limits assumed): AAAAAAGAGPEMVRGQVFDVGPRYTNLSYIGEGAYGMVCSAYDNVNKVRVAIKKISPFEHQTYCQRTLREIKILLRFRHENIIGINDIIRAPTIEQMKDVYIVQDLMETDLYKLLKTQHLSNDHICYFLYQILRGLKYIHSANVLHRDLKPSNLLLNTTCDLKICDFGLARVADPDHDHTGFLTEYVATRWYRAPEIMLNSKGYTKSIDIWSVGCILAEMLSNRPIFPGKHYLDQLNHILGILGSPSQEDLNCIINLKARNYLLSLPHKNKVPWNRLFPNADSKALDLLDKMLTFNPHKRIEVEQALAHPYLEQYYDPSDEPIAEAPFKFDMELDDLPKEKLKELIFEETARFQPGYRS

In the case of `Cc1nc(N)nc(-c2cc(CN3CCN(S(C)(=O)=O)CC3)cnc2Nc2cccc(O)c2)n1` [Example 30, 3-(3-(4-Amino-6-Methyl-1,3,5-Triazin-2-yl)-5-((4-(Methyl Sulfonyl)Piperazin-1-yl)Methyl)Pyridin-2-Ylamino)Phenol], the “POC (Percent of control) CHK1” value [1] is reported as 96 POC, the “POC (Percent of control) AURORA A” value [2] is reported as 100 POC and the “POC (Percent of control) MSK1” value [3] is reported as 90 POC. For the same compound, the “POC (Percent of control) HGK” value [4] was 96 POC, the “POC (Percent of control) ABL” value [5] was 98 POC and the “POC (Percent of control) cRAF” value [6] was 95 POC. The “POC (Percent of control) INSR” value [7] was 102 POC, the “POC (Percent of control) LCK” value [8] was 102 POC and the “POC (Percent of control) LYN” value [9] was 100 POC. For the same compound, the “POC (Percent of control) IGF1R” value [10] was 80 POC, the “POC (Percent of control) cMET” value [11] was 101 POC and the “POC (Percent of control) FGFR1” value [12] was 99 POC. The “POC (Percent of control) SRC” value [13] was 103 POC, the “POC (Percent of control) PKA alpha” value [14] was 100 POC and the “POC (Percent of control) p70S6K” value [15] was 97 POC. For the same compound, the “POC (Percent of control) CDK2” value [16] was 101 POC, the “POC (Percent of control) ERK1” value [17] was 93 POC and the “POC (Percent of control) ERK2” value [18] was 102 POC. For the same compound, the “POC (Percent of control) AKT1” value [19] was 102 POC, the “POC (Percent of control) FLT3” value [20] was 99 POC and the “POC (Percent of control) CK1 delta” value [21] was 95 POC. For the same compound, the “POC (Percent of control) GSK3 beta” value [22] was 104 POC, the “POC (Percent of control) BTK” value [23] was 97 POC and the “POC (Percent of control) MST2” value [24] was 98 POC. For the same compound, the “POC (Percent of control) DYRK1a” value [25] was 93 POC, the “POC (Percent of control) PKGa2” value [26] was 98 POC and the “POC (Percent of control) RSK1” value [27] was 103 POC. For the same compound, the “POC (Percent of control) p38 alpha” value [28] was 99 POC, the “POC (Percent of control) CAMK4” value [29] was 94 POC and the “POC (Percent of control) PRAK” value [30] was 112 POC. The “POC (Percent of control) MARK1” value [31] was 98 POC.

For `Cc1cnc(Nc2cccc3[nH]ccc23)c(-c2nc(C)nc(N)n2)c1` [Example 46, N-(3-(4-Amino-6-Methyl-1,3,5-Triazin-2-yl)-5-Methylpyridin-2-yl)-1H-Indol-4-Amine], the “POC (Percent of control) CHK1” value [1] was 98 POC, the “POC (Percent of control) AURORA A” value [2] was 31 POC and the “POC (Percent of control) MSK1” value [3] was 103 POC. The “POC (Percent of control) HGK” value [4] was 104 POC, the “POC (Percent of control) ABL” value [5] was 97 POC and the “POC (Percent of control) cRAF” value [6] was 91 POC. The “POC (Percent of control) INSR” value [7] was 98 POC, the “POC (Percent of control) LCK” value [8] was 96 POC and the “POC (Percent of control) LYN” value [9] was 96 POC. The “POC (Percent of control) IGF1R” value [10] was 78 POC, the “POC (Percent of control) cMET” value [11] was 104 POC and the “POC (Percent of control) FGFR1” value [12] was 98 POC. For the same compound, the “POC (Percent of control) SRC” value [13] was 96 POC, the “POC (Percent of control) PKA alpha” value [14] was 102 POC and the “POC (Percent of control) p70S6K” value [15] was 90 POC. The “POC (Percent of control) CDK2” value [16] was 97 POC, the “POC (Percent of control) ERK1” value [17] was 92 POC and the “POC (Percent of control) ERK2” value [18] was 116 POC. The “POC (Percent of control) AKT1” value [19] was 93 POC, the “POC (Percent of control) FLT3” value [20] was 99 POC and the “POC (Percent of control) CK1 delta” value [21] was 91 POC. The “POC (Percent of control) GSK3 beta” value [22] was 95 POC, the “POC (Percent of control) BTK” value [23] was 98 POC and the “POC (Percent of control) MST2” value [24] was 96 POC. The “POC (Percent of control) DYRK1a” value [25] was 96 POC, the “POC (Percent of control) PKGa2” value [26] was 95 POC and the “POC (Percent of control) RSK1” value [27] was 100 POC. For the same compound, the “POC (Percent of control) p38 alpha” value [28] was 96 POC, the “POC (Percent of control) CAMK4” value [29] was 96 POC and the “POC (Percent of control) PRAK” value [30] was 111 POC. For the same compound, the “POC (Percent of control) MARK1” value [31] was 102 POC.

`Cc1cnc(Nc2cccc3[nH]ncc23)c(-c2nc(C)nc(N)n2)c1` [Example 47, N-(3-(4-Amino-6-Methyl-1,3,5-Triazin-2-yl)-5-Methylpyridine-2-yl)-1H-Indazol-4-Amine] was tested, and the “POC (Percent of control) CHK1” value [1] was 92 POC, the “POC (Percent of control) AURORA A” value [2] was 85 POC and the “POC (Percent of control) MSK1” value [3] was 76 POC. For the same compound, the “POC (Percent of control) HGK” value [4] was 91 POC, the “POC (Percent of control) ABL” value [5] was 81 POC and the “POC (Percent of control) cRAF” value [6] was 56 POC. The “POC (Percent of control) INSR” value [7] was 99 POC, the “POC (Percent of control) LCK” value [8] was 61 POC and the “POC (Percent of control) LYN” value [9] was 55 POC. The “POC (Percent of control) IGF1R” value [10] was 82 POC, the “POC (Percent of control) cMET” value [11] was 102 POC and the “POC (Percent of control) FGFR1” value [12] was 94 POC. The “POC (Percent of control) SRC” value [13] was 79 POC, the “POC (Percent of control) PKA alpha” value [14] was 16 POC and the “POC (Percent of control) p70S6K” value [15] was 60 POC. For the same compound, the “POC (Percent of control) CDK2” value [16] was 93 POC, the “POC (Percent of control) ERK1” value [17] was 103 POC and the “POC (Percent of control) ERK2” value [18] was 104 POC. For the same compound, the “POC (Percent of control) AKT1” value [19] was 50 POC, the “POC (Percent of control) FLT3” value [20] was 89 POC and the “POC (Percent of control) CK1 delta” value [21] was 69 POC. The “POC (Percent of control) GSK3 beta” value [22] was 97 POC, the “POC (Percent of control) BTK” value [23] was 93 POC and the “POC (Percent of control) MST2” value [24] was 101 POC. The “POC (Percent of control) DYRK1a” value [25] was 82 POC, the “POC (Percent of control) PKGa2” value [26] was 80 POC and the “POC (Percent of control) RSK1” value [27] was 105 POC. The “POC (Percent of control) p38 alpha” value [28] was 91 POC, the “POC (Percent of control) CAMK4” value [29] was 91 POC and the “POC (Percent of control) PRAK” value [30] was 103 POC. The “POC (Percent of control) MARK1” value [31] was 107 POC.

— US8772480B2, “Inhibitors of PI3 kinase and/or mTOR” (priority 2009, dated 2014)
